In ChEMBL document CHEMBL4431337, “Synthesis and bioactivities of novel pyrazole oxime derivatives containing a 1,2,3-thiadiazole moiety” (Bioorg Med Chem Lett, 2016):

What was measured:
Huh-7 = experiment: Cytotoxicity against human HuH7 cells assessed as inhibition of cell growth after 48 hrs by MTT assay; assay type: functional, cell-based; conditions: Huh-7, 48 h
SGC-7901 = experiment: Cytotoxicity against human SGC7901 cells assessed as inhibition of cell growth after 48 hrs by MTT assay; assay type: functional, cell-based; conditions: SGC-7901, 48 h
Plutella xylostella [1] = experiment: Insecticidal activity against Plutella xylostella assessed as mortality at 200 ug/ml pre-incubated with cabbage leaves for 2 to 3 secs and measured 48 hrs post dose by leaf disc assay; assay type: functional; conditions: foliar
Tetranychus cinnabarinus [2] = experiment: Acaricidal activity against Tetranychus cinnabarinus assessed as mortality at 200 ug/ml pre-incubated with mite-infested Sieva bean plants for 3 secs and measured 48 hrs post dose; assay type: functional
Aphis craccivora [3] = experiment: Insecticidal activity against Aphis craccivora assessed as mortality at 200 ug/ml pre-incubated with horsebean shoot with aphids for 2 secs and measured 48 hrs post dose by foliar application method; assay type: functional
PANC-1 = experiment: Cytotoxicity against human PANC1 cells assessed as inhibition of cell growth after 48 hrs by MTT assay; assay type: functional, cell-based; conditions: PANC-1, 48 h
HCT-116 = experiment: Cytotoxicity against human HCT116 cells assessed as inhibition of cell growth after 48 hrs by MTT assay; assay type: functional, cell-based; conditions: HCT-116, 48 h
Aphis craccivora [4] = experiment: Insecticidal activity against Aphis craccivora assessed as mortality at 100 ug/ml pre-incubated with horsebean shoot with aphids for 2 secs and measured 48 hrs post dose by foliar application method; assay type: functional
Aphis craccivora [5] = experiment: Insecticidal activity against Aphis craccivora assessed as mortality at 50 ug/ml pre-incubated with horsebean shoot with aphids for 2 secs and measured 48 hrs post dose by foliar application method; assay type: functional
Plutella xylostella [6] = experiment: Insecticidal activity against Plutella xylostella assessed as mortality at 50 ug/ml pre-incubated with cabbage leaves for 2 to 3 secs and measured 48 hrs post dose by leaf disc assay; assay type: functional; conditions: foliar
Plutella xylostella [7] = experiment: Insecticidal activity against Plutella xylostella assessed as mortality at 100 ug/ml pre-incubated with cabbage leaves for 2 to 3 secs and measured 48 hrs post dose by leaf disc assay; assay type: functional; conditions: foliar
Tetranychus cinnabarinus [8] = experiment: Acaricidal activity against Tetranychus cinnabarinus assessed as mortality at 50 ug/ml pre-incubated with mite-infested Sieva bean plants for 3 secs and measured 48 hrs post dose; assay type: functional
Tetranychus cinnabarinus [9] = experiment: Acaricidal activity against Tetranychus cinnabarinus assessed as mortality at 100 ug/ml pre-incubated with mite-infested Sieva bean plants for 3 secs and measured 48 hrs post dose; assay type: functional

Row | Structure (SMILES) | IC50 (Huh-7) [µM] | IC50 (SGC-7901) [µM] | mortality at 200 µg/mL (Plutella xylostella [1]) [%] | mortality at 200 µg/mL (Tetranychus cinnabarinus [2]) [%] | mortality at 200 µg/mL (Aphis craccivora [3]) [%] | IC50 (PANC-1) [µM] | IC50 (HCT-116) [µM] | mortality at 100 µg/mL (Aphis craccivora [4]) [%] | mortality at 50 µg/mL (Aphis craccivora [5]) [%] | mortality at 50 µg/mL (Plutella xylostella [6]) [%] | mortality at 100 µg/mL (Plutella xylostella [7]) [%] | mortality at 50 µg/mL (Tetranychus cinnabarinus [8]) [%] | mortality at 100 µg/mL (Tetranychus cinnabarinus [9]) [%]
1 | CCCc1nnsc1CO/N=C/c1c(C)nn(C)c1Oc1ccc(F)cc1 | > 50 | 8.64 | 0 | 0 | 0 | > 50 | 7.06 |  |  |  |  |  | 
2 | O=[N+]([O-])/N=C1\NCCN1Cc1ccc(Cl)nc1 [IMIDACLOPRID] |  |  |  |  | 100 |  |  | 100 | 100 |  |  |  | 
3 | CCc1nnsc1CO/N=C/c1c(C)nn(C)c1Oc1ccccc1Cl | > 50 | 15.8 | 0 | 0 | 0 | > 50 | 17.6 |  |  |  |  |  | 
4 | FC(F)(F)c1ccc(OCCCOc2c(Cl)cc(OCC=C(Cl)Cl)cc2Cl)nc1 [PYRIDALYL] |  |  | 100 |  |  |  |  |  |  | 100 | 100 |  | 
5 | Cc1nnsc1CO/N=C/c1c(C)nn(C)c1Oc1ccc(F)cc1 | > 50 | > 50 | 100 | 0 | 99 | > 50 | 30.2 | 90 | 60 |  | 0 |  | 
6 | CCc1nnsc1CO/N=C/c1c(C)nn(C)c1Cl | > 50 | > 50 | 0 | 0 | 0 | > 50 | > 50 |  |  |  |  |  | 
7 | Cc1nnsc1CO/N=C/c1c(C)nn(C)c1Oc1ccccc1OC(F)(F)F | > 50 | > 50 | 66 | 0 | 22 | > 50 | > 50 |  |  |  | 0 |  | 
8 | CCc1nnsc1CO/N=C/c1c(C)nn(C)c1Oc1ccc(OC(F)(F)F)cc1 | > 50 | 13.6 | 0 | 0 | 0 | > 50 | 12.5 |  |  |  |  |  | 
9 | Cc1nnsc1CO/N=C/c1c(C)nn(C)c1Oc1ccccc1Cl | > 50 | > 50 | 100 | 0 | 15 | > 50 | 42.5 |  |  |  | 0 |  | 
10 | CCCc1nnsc1CO/N=C/c1c(C)nn(C)c1Oc1ccc(Cl)cc1 | > 50 | 18.6 | 0 | 0 | 0 | > 50 | 19.2 |  |  |  |  |  | 
11 | Cc1cccc(Oc2c(/C=N/OCc3snnc3C)c(C)nn2C)c1 | > 50 | 12.8 | 84 | 0 | 90 | > 50 | 14.1 | 70 | 38 |  | 0 |  | 
12 | CCCc1nnsc1CO/N=C/c1c(C)nn(C)c1Oc1ccccc1Cl | > 50 | 17.6 | 0 | 0 | 0 | > 50 | 16.4 |  |  |  |  |  | 
13 | Cc1nnsc1CO/N=C/c1c(C)nn(C)c1Oc1cccc(F)c1 | > 50 | > 50 | 71 | 80 | 98 | > 50 | > 50 | 80 | 52 |  | 0 | 0 | 50
14 | Cc1nnsc1CO/N=C/c1c(C)nn(C)c1Cl | > 50 | > 50 | 100 | 0 | 100 | 26.6 | > 50 | 85 | 61 |  | 0 |  | 
15 | O=c1[nH]cc(F)c(=O)[nH]1 [FLUOROURACIL] |  | 56.1 |  |  |  |  | 29.5 |  |  |  |  |  | 
16 | Cc1nnsc1CO/N=C/c1c(C)nn(C)c1Oc1ccc(OC(F)(F)F)cc1 | > 50 | 11.5 | 50 | 80 | 100 | > 50 | 12.8 | 85 | 59 |  | 0 |  | 
17 | CNC(=O)c1cc(Oc2ccc(NC(=O)Nc3ccc(Cl)c(C(F)(F)F)c3)cc2)ccn1 [SORAFENIB] |  |  |  |  |  | 11.5 |  |  |  |  |  |  | 
18 | Cc1nnsc1CO/N=C/c1c(C)nn(C)c1Oc1cc(F)cc(F)c1 | > 50 | 9.41 | 100 | 0 | 90 | > 50 | 8.12 | 75 | 45 |  | 0 |  | 
19 | Cc1nnsc1CO/N=C/c1c(C)nn(C)c1Oc1ccc(C(C)(C)C)cc1 | > 50 | > 50 | 100 | 0 | 95 | > 50 | 33.5 | 80 | 50 |  | 0 |  | 
20 | CCCc1nnsc1CO/N=C/c1c(C)nn(C)c1Oc1ccccc1C | > 50 | 16.3 | 0 | 0 | 0 | > 50 | 15.7 |  |  |  |  |  | 
21 | Cc1nnsc1CO/N=C/c1c(C)nn(C)c1Oc1ccc(Br)cc1 | 11.8 | 15.2 | 100 | 0 | 20 | 12.8 | 7.19 |  |  | 43 | 80 |  | 
22 | CCc1nnsc1CO/N=C/c1c(C)nn(C)c1Oc1ccc(C)cc1 | > 50 | 19.8 | 0 | 0 | 0 | > 50 | > 50 |  |  |  |  |  | 
23 | CCCc1nnsc1CO/N=C/c1c(C)nn(C)c1Cl | > 50 | > 50 | 0 | 0 | 0 | > 50 | > 50 |  |  |  |  |  | 
24 | Cc1nnsc1CO/N=C/c1c(C)nn(C)c1Oc1cccc(F)c1F | 10.2 | 25.7 | 100 | 0 | 19 | 12.2 | 6.56 |  |  |  | 0 |  | 
25 | Cc1nnsc1CO/N=C/c1c(C)nn(C)c1Oc1cccc(C(F)(F)F)c1 | > 50 | 12.4 | 45 | 0 | 62 | > 50 | 10.3 | 55 | 31 |  |  |  | 
26 | Cc1ccc(Oc2c(/C=N/OCc3snnc3C)c(C)nn2C)cc1 | > 50 | 12.8 | 100 | 0 | 100 | > 50 | 13.8 | 90 | 58 |  | 0 |  | 
27 | Cc1nnsc1CO/N=C/c1c(C)nn(C)c1Oc1ccc(I)cc1 | > 50 | > 50 | 64 | 90 | 95 | > 50 | 43.8 | 70 | 41 | 60 | 62 | 0 | 60
28 | Cc1nn(C)c(Oc2ccccc2)c1/C=N/OCc1ccc(C(=O)OC(C)(C)C)cc1 [FENPYROXYMATE] |  |  |  | 100 |  |  |  |  |  |  |  | 100 | 100
